Data reported in patent US5116815A, “PF 1022 substance, method of treating helminthic parasitic infection and anthelmintic composition” (Meiji Seika Kaisha Ltd., priority 1989, dated 1992).
Several values for one entry are separate records, joined by “and”; a condition that tells them apart may be missing. Equal entries are not always repeated.

What was measured:
[1] = Classification by basicity, acidity or neutrality; assay type: physicochemical
[2] = Oral toxicity in mice (body weight gain, abnormalities); assay type: in vivo; conditions: 300 mg/kg
Ames test = assay type: cell-based
[3] = system: feline hookworms (Ancylostoma tubaeforme); assay: Anthelmintic activity against cat hookworms; assay type: in vivo; conditions: cats
Description: The PF 1022 substance was evaluated for its anthelmintic effect on feline hookworms (Ancylostoma tubaeforme) by orally administering the substance once to 12 cats found to be infected with said worms by scatoscopy.
The infected cats were divided into three groups of 4 animals and respectively given 0.2 mg/kg, 1 mg/kg and 5 mg/kg of the substance admixed as such with a small portion of the ordinary feed. The observation items were the number of worms eliminated during 7 days following administration and the number of remaining worms found upon autopsy 7 days after administration.

[4] = system: fourth stomachworms (Ostertaqia circumcincta); assay: Sheep digestive tract nematodes, worms remaining in the fourth stomach; assay type: in vivo; conditions: for number of worms remaining in the fourth stomach at autopsy: autopsy 7 days after administration, mean of 6 animals
Description: The PF 1022 substance was evaluated for its anthelmintic effect in sheep mixedly infected with fourth stomachworms (Ostertaqia circumcincta) and small intestinal hairworms (Trichostrongylus colubriformis) by administering it orally to 24 sheep artificially infected with said two worm species.
The infected sheep were divided into 4 groups of 6 animals, which were respectively given 1 mg/kg, 5 mg/kg, 10 mg/kg and 0 mg/kg (control) of the substance suspended in 0.5% CMC, via a stomach catheter. The observation items were the number of parasite eggs per gram of feces (EPG) before administration, the EPG 7 days after administration, and the number of worms remaining in the fourth stomach and that of worms remaining in the intestinal tract as found upon autopsy 7 days after administration.
Each numerical value given is the mean of 6 animals.

[5] = system: roundworms (Parascaris equorum); assay: Anthelmintic effect on equine roundworms; assay type: in vivo; conditions: horse, oral 5 mg/kg Day 0 and 2.5 mg/kg Day 1
Description: (§1) The PF 1022 substance was evaluated for its anthelmintic effect in a horse found by scatoscopy to be infected with roundworms (Parascaris equorum) and strongyles (Strongylus spp.) by orally administering the substance thereto.
(§2) The PF 1022 substance was suspended in water and administered with a stomach catheter at 5 mg/kg on the first day and at 2.5 mg/kg on the second day. For both the roundworms and strongyles, parasite eggs in each gram of feces (EPG) as well as parasites eliminated were counted daily for one week following the first administration. For strongyles, the number of worms in 100 g of feces was determined.

[6] = system: strongyles (Strongylus spp.); assay: Anthelmintic effect on equine strongyles; assay type: in vivo; conditions: horse, oral 5 mg/kg Day 0 and 2.5 mg/kg Day 1
Description: as §1, §2

[7] = system: bovine twisted stomach worms (Haemonchus contortus); assay: In vitro test tube motility test on bovine twisted stomach worms; conditions: physiological salt solution, 39-40 C
Description: The PF 1022 substance was evaluated for its anthelmintic activity by adding it to test tubes in which bovine twisted stomach worms (Haemonchus contortus) isolated from the bovine fourth stomach were swimming.
A physiological salt solution was distributed into 4 test tubes and warmed to 39°-40° C. Three to five twisted stomachworms collected from the bovine fourth stomach were put into the medium in each test tube and allowed to swim therein. An appropriate amount of the PF 1022 substance was dissolved in a small amount of dimethyl sulfoxide and the solution was added dropwise to the medium and, after stirring for admixing, the behavior of each worm was observed. The amount of the PF 1022 substance was adjusted so that the final concentrations in the culture medium in three tubes amounted to 2 ppm, 8 ppm and 40 ppm, respectively. Dimethyl sulfoxide alone was added dropwise to the remaining test tube, which served as a control.

[8] = system: roundworms (Toxocara canis); assay: Anthelmintic effect on canine roundworms; assay type: in vivo; conditions: dog, single oral dose 5 mg/kg
Description: (§3) The PF 1022 substance was evaluated for its anthelmintic effect in dogs by orally administering it to dogs found to be infected with roundworms (Toxocara canis), hookworms (Ancylostoma caninum) and whipworms (Trichuris vulpisl), respectively, by scatoscopy.
(§4) The substance was orally administered once at the dose of 5 mg/kg to a dog infected with the roundworms or hookworms by admixing the substance with a small portion of the ordinary feed, and the worms eliminated and those remaining in the dog during 7 days following administration were counted.

[9] = system: hookworms (Ancylostoma caninum); assay: Anthelmintic effect on canine hookworms; assay type: in vivo; conditions: dog, single oral dose 5 mg/kg
Description: as §3, §4

For `CC(C)C[C@H]1C(=O)O[C@H](Cc2ccccc2)C(=O)N(C)[C@@H](CC(C)C)C(=O)O[C@H](C)C(=O)N(C)[C@@H](CC(C)C)C(=O)O[C@H](Cc2ccccc2)C(=O)N(C)[C@@H](CC(C)C)C(=O)O[C@H](C)C(=O)N1C` [PF 1022 substance], the “Classification by basicity, acidity or neutrality” value [1] was “Neutral substance”, the “body weight gains and abnormalities” value [2] was “normal body weight gains are obtained without any abnormalities” and the Ames test result (Ames test) was “negative”. The “% Elimination” value ([3]; single oral dose 1 mg/kg, 1 mg/kg) was 62.5% and 100% and 87.5% and 98.2%, the “% Elimination” value ([3]; single oral dose 5 mg/kg) was 100% and the “Number of remaining worms” value ([3]; single oral dose 5 mg/kg, autopsy 7 days) was 0. The “number of worms remaining in the fourth stomach at autopsy” value (shortened to “number of worms remaining … at autopsy”) ([4]; oral 1 mg/kg) was 4967, the “number of worms remaining … at autopsy” value ([4]; oral 5 mg/kg) was 4717 and the “number of worms remaining in the fourth stomach relative to the control infected group” value ([4]; oral 10 mg/kg) was “about half”. The “number of worms remaining … at autopsy” value ([4]; oral 10 mg/kg) was 2463, the EPG ([5]; Day 0) was 77 and the “Number of worms eliminated” value ([5]; Day 0) was 0. The EPG ([5]; Day 1) was 52, the “Number of worms eliminated” value ([5]; Day 1) was 22 and the EPG ([5]; Day 2) was 0.4. For the same molecule, the “Number of worms eliminated” value ([5]; Day 2) was 17, the EPG ([5]; Day 3) was 0.2 and the “Number of worms eliminated” value ([5]; Day 3) was 0. For the same molecule, the EPG ([5]; Day 4) was 0, the “Number of worms eliminated” value ([5]; Day 4) was 0 and the EPG ([5]; Day 5) was 0. The “Number of worms eliminated” value ([5]; Day 5) was 0, the EPG ([5]; Day 6) was 0.2 and the “Number of worms eliminated” value ([5]; Day 6) was 0. The EPG ([5]; Day 7) was 0, the “Number of worms eliminated” value ([5]; Day 7) was 0 and the EPG ([6]; Day 0) was 265. The “Number of worms eliminated” value ([6]; Day 0) was 0 per 100 g feces, the EPG ([6]; Day 1) was 82 and the “Number of worms eliminated” value ([6]; Day 1) was 82 per 100 g feces. The EPG ([6]; Day 2) was 0.6, the “Number of worms eliminated” value ([6]; Day 2) was 0 per 100 g feces and the EPG ([6]; Day 3) was 0.4. The “Number of worms eliminated” value ([6]; Day 3) was 0 per 100 g feces, the EPG ([6]; Day 4) was 0 and the “Number of worms eliminated” value ([6]; Day 4) was 0 per 100 g feces. For the same molecule, the EPG ([6]; Day 5) was 0, the “Number of worms eliminated” value ([6]; Day 5) was 0 per 100 g feces and the EPG ([6]; Day 6) was 0.2. For the same molecule, the “Number of worms eliminated” value ([6]; Day 6) was 0 per 100 g feces, the “Number of worms eliminated” value ([6]; Day 7) was 0 per 100 g feces and the “time until the worms stopped moving” value ([7]; 2 ppm) was 25 min. For the same molecule, the “time until the worms stopped moving” value ([7]; 8 ppm) was 15 min, the “time until the worms stopped moving” value ([7]; 40 ppm) was 10 min and the elimination [8] was 100%. For the same molecule, the roundworms eliminated ([8]; 7 days) was “six”, the roundworms remaining ([8]; 7 days) was “no roundworms were found remaining” and the elimination [9] was 100%. For the same molecule, the hookworms eliminated ([9]; 7 days) was “Twelve” and the hookworms remaining ([9]; 7 days) was “no hookworms were found remaining”.
